# Where two headings read alike, the source gives them in different places.
# Columns and labels:
# Escherichia coli culture [1] = assay: Optical third-derivative MIC method, culture in broth; assay type: cell-based; details: EC/03D177; for MIC: Escherichia coli
# Description: The method of FIG. 1 starts at a time equal to zero, t0 (1). Preferably, said t0 is the moment a pure bacteria culture is finished being prepared. Alternatively, said t0 is the moment all wells contain both said bacteria culture and said antimicrobial drug. After the starting of the experiment each well is periodically illuminated with a light source and the intensity of the transmitted light is detected with a photodetector (2). Preferably, each well is illuminated and the intensity of the transmitted light is detected every hour (2). More preferably, each well is illuminated and the intensity of the transmitted light is detected every 5 to 15 min. After a predetermined time length, preferably after 4 hours, a first, a second and a third derivative of said measured intensity is calculated (3) in a first and a second time frame for each well. Preferably, said second time frame is the last measured time frame after the test has been running for said predetermined time length, and said first time frame is the time frame preceding the second time frame. More preferably, said first time frame is between two and three hours and said second time frame is between three and four hours. After the calculation of said derivatives, said first derivative in said second time frame of said reference well is compared to a growth speed threshold value (4). Preferably, said growth speed threshold value is 0.166 (4). If said first derivative in said second time frame of said reference well is larger than or equal to said growth speed threshold value said bacteria culture is classified as Type I (4). If said first derivative in said second time frame of said reference well is smaller than said growth speed threshold value said bacteria culture is classified as Type II (4). Subsequently, independent of the classification of the bacteria culture according to the two types, the method comprises the following steps which are performed for each well or for all wells except said reference well. Both said first and said second time frames are evaluated to see if there is an inflection point present in the second derivative in said first and/or said second time frame (5).
# If said first and/or said second time frame comprise said inflection point than said third derivative in said first time frame is compared to said third derivative in said second time frame (6). If said third derivative in said first time frame is larger than said third derivative in said second time frame, then said first time frame and said second time frame are selected as a first and second time frame to be used in a minimal inhibitory concentration determination method (10). If said third derivative in said first time frame is not larger than said third derivative in said second time frame, then said well is illuminated again after a certain time period, preferably an hour, more preferably 5 to 15 min after said predetermined time length said, with a light source and the intensity of the transmitted light is detected with a photodetector forming a new time frame subsequent to said second time frame (7). A third derivative, and possibly also a first and/or a second derivative, is calculated in said new time frame (7). Further, in step (7) a new first time frame is put equal to said second time frame and a new second time frame to equal to said new time frame. Subsequently, said third derivative in said new first time frame is compared to said third derivative in said new second time frame (8). If said derivative in said new first time frame is larger than said third derivative in said new second time frame, then said new first time frame and said new second time frame are selected as a first and second time frame to be used in a minimal inhibitory concentration determination method (10). […]
# E-coli = details: tabulated, known value, cited from earlier work
# Escherichia coli culture [2] = assay: E-test; assay type: cell-based; details: culture EC/03D177
# Escherichia coli culture [3] = assay: Broth microdilution (BMD); assay type: cell-based; details: culture EC/03D177
smiles,measurement,setting,value
CC1(C)S[C@@H]2[C@H](NC(=O)[C@H](N)c3ccccc3)C(=O)N2[C@H]1C(=O)O [ampicillin],heteroresistance determined by the method,"Escherichia coli culture [1]; FIG. 5D, overall conclusion",not heteroresistant
same,HR? at MIC (25%),Escherichia coli culture [1]; ratio MIC T2/T1,yes (If the ratio of the MIC value in the second time frame over the MIC value in the first time frame is higher than or equal to 8 then the ratio is labelled to be heteroresistant)
same,HR? at MIC (40%),Escherichia coli culture [1]; ratio MIC T2/T1,no (If the ratio of the MIC value in the second time frame over the MIC value in the first time frame is lower than or equal to 4 then the ratio is labelled not to be heteroresistant)
same,HR? at MIC (60%),Escherichia coli culture [1]; ratio MIC T2/T1,no (If the ratio of the MIC value in the second time frame over the MIC value in the first time frame is lower than or equal to 4 then the ratio is labelled not to be heteroresistant)
same,HR? at MIC (75%),Escherichia coli culture [1]; ratio MIC T2/T1,no (If the ratio of the MIC value in the second time frame over the MIC value in the first time frame is lower than or equal to 4 then the ratio is labelled not to be heteroresistant)
same,MIC,"Escherichia coli culture [1]; 3 h-4 h, read-out: MIC (25%) T1",2 µg/mL
same,MIC,"Escherichia coli culture [1]; 3 h-4 h, read-out: MIC (40%) T1",2 µg/mL
same,MIC,"Escherichia coli culture [1]; 3 h-4 h, read-out: MIC (60%) T1",2 µg/mL
same,MIC,"Escherichia coli culture [1]; 3 h-4 h, read-out: MIC (75%) T1",2 µg/mL
same,MIC,"Escherichia coli culture [1]; 4 h-5 h, read-out: MIC (25%) T2",8 µg/mL
same,MIC,"Escherichia coli culture [1]; 4 h-5 h, read-out: MIC (40%) T2",2 µg/mL
same,MIC,"Escherichia coli culture [1]; 4 h-5 h, read-out: MIC (60%) T2",2 µg/mL
same,MIC,"Escherichia coli culture [1]; 4 h-5 h, read-out: MIC (75%) T2",2 µg/mL
same,MIC,"Escherichia coli culture [1]; FIG. 5D, overall conclusion, read-out: MIC value determined by the method",2 µg/mL
same,MIC for Ampiciline,E-coli; Colony ID. 03D161,4 µg/mL
same,MIC for Ampiciline,E-coli; Colony ID. 03D177,2 µg/mL
same,MIC for Ampiciline,E-coli; Colony ID. 03D179,> 32 µg/mL
same,MIC,Escherichia coli culture [2]; Escherichia coli,2 µg/mL
same,HR? (E-test),Escherichia coli culture [2],no
same,MIC,Escherichia coli culture [3],4 µg/mL

# Reference: patent publication US20220389477A1, “METHOD FOR EVALUATING ANTIBIOTIC SUSCEPTIBILITY” (Vrije Universiteit Brussel, priority 2019, published 2022)
